This note sets out measurements from BindingDB's records for doi:10.1021/jm030354b (Millennium Pharmaceuticals, 2004).

Assay [1] deals with T1, Integrin alpha-IIb/beta-3 (Homo sapiens, UniProt P08514+P05106). In words: Inhibition of human platelet (h-PRP) aggregation induced by 20 uM ADP with PPACK.
Assay [2] has as its target T1, Integrin alpha-IIb/beta-3. In words: Inhibition of platelet aggregation induced by 20 uM adenosine 5-diphosphate (ADP) in citreated human platelet rich plasma (h-PRP).
Assay [3] in a line: Inhibition of citreated human (h-PRP) platelet aggregation induced by 5 uM TRAP6.
Assay [4] in a line: Inhibition of human platelet (h-PRP) aggregation induced by 5 uM TRAP6 with PPACK.
Assay [5] is described as follows: Inhibition of human platelet (h-PRP) aggregation induced by 4 ug/mL collagen with PPACK.
Assay [6] in a line: Inhibition of human platelet (h-PRP) aggregation induced by 20 uM ADP with PPACK.
Assay [7] can be described thus: Inhibition of citreated human platelet (h-PRP) aggregation induced by 4 ug/mL collagen.

pIC50: −log10 of the molar value.

In general, pIC50 refers to the IC50 on a negative log10 scale, so that one unit is a factor of ten. Lower therefore signals a large IC50.

T1 sequence (P05106 27-788 limits assumed): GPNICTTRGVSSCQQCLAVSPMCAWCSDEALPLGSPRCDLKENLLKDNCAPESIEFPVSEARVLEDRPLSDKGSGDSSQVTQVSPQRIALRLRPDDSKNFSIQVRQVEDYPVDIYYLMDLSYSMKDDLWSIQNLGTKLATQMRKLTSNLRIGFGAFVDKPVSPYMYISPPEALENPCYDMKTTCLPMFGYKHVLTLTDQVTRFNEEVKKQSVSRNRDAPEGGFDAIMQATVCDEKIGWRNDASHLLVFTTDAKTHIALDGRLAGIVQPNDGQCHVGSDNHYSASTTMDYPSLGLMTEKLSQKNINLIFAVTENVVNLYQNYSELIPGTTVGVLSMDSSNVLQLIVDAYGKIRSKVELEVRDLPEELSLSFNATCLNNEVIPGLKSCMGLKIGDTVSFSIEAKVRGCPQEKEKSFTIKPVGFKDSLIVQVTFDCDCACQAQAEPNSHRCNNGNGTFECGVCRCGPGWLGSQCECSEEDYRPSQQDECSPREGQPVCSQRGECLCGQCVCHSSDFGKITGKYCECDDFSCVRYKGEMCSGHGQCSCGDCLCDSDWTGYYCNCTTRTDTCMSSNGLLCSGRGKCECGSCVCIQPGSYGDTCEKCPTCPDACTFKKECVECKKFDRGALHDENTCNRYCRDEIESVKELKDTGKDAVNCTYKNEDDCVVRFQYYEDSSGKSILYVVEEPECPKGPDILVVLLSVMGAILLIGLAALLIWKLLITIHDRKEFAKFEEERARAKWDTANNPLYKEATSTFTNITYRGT
T1 sequence (P08514 32-887 limits assumed): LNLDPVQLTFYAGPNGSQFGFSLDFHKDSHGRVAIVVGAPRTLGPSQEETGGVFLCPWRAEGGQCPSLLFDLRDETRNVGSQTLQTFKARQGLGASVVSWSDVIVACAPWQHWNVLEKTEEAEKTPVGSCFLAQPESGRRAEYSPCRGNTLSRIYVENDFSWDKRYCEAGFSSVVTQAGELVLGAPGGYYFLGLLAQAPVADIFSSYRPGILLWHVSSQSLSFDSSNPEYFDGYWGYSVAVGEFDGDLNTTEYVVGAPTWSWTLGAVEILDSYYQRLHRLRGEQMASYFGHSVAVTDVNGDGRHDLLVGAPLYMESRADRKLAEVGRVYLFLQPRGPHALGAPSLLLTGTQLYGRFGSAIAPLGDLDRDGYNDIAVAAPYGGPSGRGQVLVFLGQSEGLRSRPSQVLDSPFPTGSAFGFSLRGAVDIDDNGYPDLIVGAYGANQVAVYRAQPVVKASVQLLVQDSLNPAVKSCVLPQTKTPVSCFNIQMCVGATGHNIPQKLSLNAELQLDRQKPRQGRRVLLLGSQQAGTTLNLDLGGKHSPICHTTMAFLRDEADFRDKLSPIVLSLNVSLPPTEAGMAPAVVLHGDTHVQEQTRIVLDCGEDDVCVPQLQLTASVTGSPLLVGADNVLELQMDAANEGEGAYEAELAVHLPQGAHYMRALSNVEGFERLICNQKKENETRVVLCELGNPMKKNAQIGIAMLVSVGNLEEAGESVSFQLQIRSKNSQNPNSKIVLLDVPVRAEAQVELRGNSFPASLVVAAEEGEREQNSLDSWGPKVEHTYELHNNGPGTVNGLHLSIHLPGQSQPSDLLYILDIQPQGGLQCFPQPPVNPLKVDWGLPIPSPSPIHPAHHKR
T1 sequence (P08514 891-1039 limits assumed): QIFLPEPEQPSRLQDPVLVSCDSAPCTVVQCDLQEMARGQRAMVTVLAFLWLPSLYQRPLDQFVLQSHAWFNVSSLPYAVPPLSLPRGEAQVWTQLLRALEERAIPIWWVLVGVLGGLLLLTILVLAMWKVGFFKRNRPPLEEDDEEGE

On to `N=C(N)c1ccc(N2CCC3(CCN(C(=O)NCCC(=O)O)CC3)C2=O)cc1` [3-{[2-(4-Carbamimidoyl-phenyl)-1-oxo-2,8-diaza-spiro[4.5]decane-8-carbonyl]-amino}-propionic acid], for which the negative logarithm of the IC50 (pIC50) in assay [1] was 6.96; in assay [2] it was 7.28; in assay [3] it was 6.92; in assay [4], 6.44.

For `N=C(N)c1ccc(N2CCC3(CCN(C(=O)CCCC(=O)O)CC3)C2=O)cc1` [5-[2-(4-Carbamimidoyl-phenyl)-1-oxo-2,8-diaza-spiro[4.5]dec-8-yl]-5-oxo-pentanoic acid], the negative logarithm of the IC50 (pIC50) in assay [2] is 7.27; in assay [5], 6.33; in assay [3] it was 6.91; in assay [6], 6.77; in assay [7], 6.76; in assay [4], 6.43.

Take `CCOC(=O)COC1CCN(C(=O)[C@H](C)NC(=O)c2ccc(C(=N)NO)cc2)CC1` [((S)-1-{2-[4-(N-Hydroxycarbamimidoyl)-benzoylamino]-propionyl}-piperidin-4-yloxy)-acetic acid ethyl ester]: the pIC50 is 7.29 in assay [2], 6.83 in assay [3], 7.14 in assay [6] and 6.74 in assay [4].

In assay [6], `C[C@@H](CC(=O)O)CC(=O)N1CCC2(CC1)CCN(c1ccc(C(=N)N)cc1)C2=O` [(R)-5-[2-(4-Carbamimidoyl-phenyl)-1-oxo-2,8-diaza-spiro[4.5]dec-8-yl]-3-methyl-5-oxo-pentanoic acid] showed a negative logarithm of the IC50 (pIC50) of 6.95.

For `CCOC(=O)CCNC(=O)N[C@H]1CCN(c2ccc(C(=N)N)cc2)C1=O` [SC-57099B], the negative logarithm of the IC50 (pIC50) in assay [2] was 7.17; in assay [3] it was 6.78; in assay [6], 6.86; in assay [4] it was 6.44.

`N=C(N)c1ccc(N2CCC3(CCN(C(=O)COCC(=O)O)CC3)C2=O)cc1` [{2-[2-(4-Carbamimidoyl-phenyl)-1-oxo-2,8-diaza-spiro[4.5]dec-8-yl]-2-oxo-ethoxy}-acetic acid]: the negative-log IC50 (pIC50) is 6.59 in assay [1]; 6.97 in assay [2]; 6.09 in assay [5]; 6.56 in assay [3]; 6.41 in assay [7]; 6.16 in assay [4].
